Data published in PubChem BioAssay AID2060905 (Molecular Pharmacology Branch, DTP, NCI, 2025).

Test system: 282377-053-R-J1-PDC complex spheroid viability
Experiment: Anticancer human tumor 282377-053-R-J1-PDC patient-derived colon adenocarcinoma cell line growth inhibition [RAS]
Conditions: for IC50: curve of first compound; for viability, T/C: stronger effect = lower value
Summary of the method: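 Tumour cells grown as complex spheroids with HUVEC endothelial cells and mesenchymal stem cells, treated with RAS pathway inhibitor combinations. Each agent spans half-log steps from near clinical Cmax, or 10 microM where Cmax is unknown.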

[1] = second compound 0.000949 µM, first compound 0.0316 µM
[2] = second compound 0.000949 µM, first compound 0.1 µM
[3] = second compound 0.000949 µM, first compound 0.316 µM
[4] = second compound 0.000949 µM, first compound 1 µM
[5] = second compound 0.003 µM, first compound 0.0316 µM
[6] = second compound 0.003 µM, first compound 0.1 µM
[7] = second compound 0.003 µM, first compound 0.316 µM
[8] = second compound 0.003 µM, first compound 1 µM
[9] = second compound 0.00949 µM, first compound 0.0316 µM
[10] = second compound 0.00949 µM, first compound 0.1 µM
[11] = second compound 0.00949 µM, first compound 0.316 µM
[12] = second compound 0.00949 µM, first compound 1 µM
[13] = second compound 0.03 µM, first compound 0.0316 µM
[14] = second compound 0.03 µM, first compound 0.1 µM
[15] = second compound 0.03 µM, first compound 0.316 µM
[16] = second compound 0.03 µM, first compound 1 µM
[17] = second compound 0.0949 µM, first compound 0.0316 µM
[18] = second compound 0.0949 µM, first compound 0.1 µM
[19] = second compound 0.0949 µM, first compound 0.316 µM
[20] = second compound 0.0949 µM, first compound 1 µM
[21] = second compound 0.3 µM, first compound 0.0316 µM
[22] = second compound 0.3 µM, first compound 0.1 µM
[23] = second compound 0.3 µM, first compound 0.316 µM
[24] = second compound 0.3 µM, first compound 1 µM
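Further: spheroids exposed to agents for seven days before readout.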
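Wherever viability, T/C is given: luminescence viability as percent of DMSO vehicle control wells.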

SMILES: CC(=O)OC12COC1CC(O)C1(C)C(=O)C(O)C3=C(C)C(OC(=O)C(O)C(NC(=O)OC(C)(C)C)c4ccccc4)CC(O)(C(OC(=O)c4ccccc4)C21)C3(C)C (centres undefined) + CCn1c(-c2cccnc2C(C)OC)c2c3cc(ccc31)N1CCOC(CC(NC(=O)C(C(C)C)N(C)C(=O)C3(F)CCN(C(=O)C#CC(C)(C)N(C)C)CC3)C(=O)N3CCCC(N3)C(=O)OCC(C)(C)C2)C1
- IC50 (second compound 0.000949 µM): < 31.6 nM
- IC50 (second compound 0.003 µM): < 31.6 nM
- IC50 (second compound 0.00949 µM): < 31.6 nM
- IC50 (second compound 0.03 µM): < 31.6 nM
- IC50 (second compound 0.0949 µM): < 31.6 nM
- IC50 (second compound 0.3 µM): > 10000 nM
- viability, T/C [1]: 35%
- viability, T/C [2]: 39.9%
- viability, T/C [3]: 40.9%
- viability, T/C [4]: 50.3%
- viability, T/C (second compound 0.000949 µM, first compound 3.16 µM): 48.3%
- viability, T/C (second compound 0.000949 µM, first compound 10 µM): 109%
- viability, T/C [5]: 44.6%
- viability, T/C [6]: 44.1%
- viability, T/C [7]: 42.8%
- viability, T/C [8]: 43.7%
- viability, T/C (second compound 0.003 µM, first compound 3.16 µM): 57.7%
- viability, T/C (second compound 0.003 µM, first compound 10 µM): 92%
- viability, T/C [9]: 54.8%
- viability, T/C [10]: 43.4%
- viability, T/C [11]: 40.3%
- viability, T/C [12]: 42.8%
- viability, T/C (second compound 0.00949 µM, first compound 3.16 µM): 63.7%
- viability, T/C (second compound 0.00949 µM, first compound 10 µM): 84.7%
- viability, T/C [13]: 48.3%
- viability, T/C [14]: 39.7%
- viability, T/C [15]: 38.4%
- viability, T/C [16]: 52.5%
- viability, T/C (second compound 0.03 µM, first compound 3.16 µM): 83.4%
- viability, T/C (second compound 0.03 µM, first compound 10 µM): 94.6%
- viability, T/C [17]: 48.9%
- viability, T/C [18]: 51.1%
- viability, T/C [19]: 47.5%
- viability, T/C [20]: 55.4%
- viability, T/C (second compound 0.0949 µM, first compound 3.16 µM): 88%
- viability, T/C (second compound 0.0949 µM, first compound 10 µM): 117%
- viability, T/C [21]: 53.8%
- viability, T/C [22]: 54.5%
- viability, T/C [23]: 53.6%
- viability, T/C [24]: 66.4%
- viability, T/C (second compound 0.3 µM, first compound 3.16 µM): 85.5%
- viability, T/C (second compound 0.3 µM, first compound 10 µM): 119%

SMILES: Nc1ccn(C2OC(CO)C(O)C2(F)F)c(=O)n1 (centres undefined) + CCn1c(-c2cccnc2C(C)OC)c2c3cc(ccc31)N1CCOC(CC(NC(=O)C(C(C)C)N(C)C(=O)C3(F)CCN(C(=O)C#CC(C)(C)N(C)C)CC3)C(=O)N3CCCC(N3)C(=O)OCC(C)(C)C2)C1
- IC50 (second compound 0.000949 µM): > 1000 nM
- IC50 (second compound 0.003 µM): > 1000 nM
- IC50 (second compound 0.00949 µM): > 1000 nM
- IC50 (second compound 0.03 µM): > 1000 nM
- IC50 (second compound 0.0949 µM): > 1000 nM
- IC50 (second compound 0.3 µM): > 1000 nM
- viability, T/C (second compound 0.000949 µM, first compound 0.00316 µM): 99.3%
- viability, T/C (second compound 0.000949 µM, first compound 0.01 µM): 105%
- viability, T/C [1]: 76%
- viability, T/C [2]: 92.6%
- viability, T/C [3]: 67.2%
- viability, T/C [4]: 57.9%
- viability, T/C (second compound 0.003 µM, first compound 0.00316 µM): 100%
- viability, T/C (second compound 0.003 µM, first compound 0.01 µM): 97.9%
- viability, T/C [5]: 99.2%
- viability, T/C [6]: 109%
- viability, T/C [7]: 81.1%
- viability, T/C [8]: 59%
- viability, T/C (second compound 0.00949 µM, first compound 0.00316 µM): 106%
- viability, T/C (second compound 0.00949 µM, first compound 0.01 µM): 97.9%
- viability, T/C [9]: 99.3%
- viability, T/C [10]: 96.8%
- viability, T/C [11]: 87.2%
- viability, T/C [12]: 66.1%
- viability, T/C (second compound 0.03 µM, first compound 0.00316 µM): 104%
- viability, T/C (second compound 0.03 µM, first compound 0.01 µM): 87.7%
- viability, T/C [13]: 112%
- viability, T/C [14]: 104%
- viability, T/C [15]: 103%
- viability, T/C [16]: 74.1%
- viability, T/C (second compound 0.0949 µM, first compound 0.00316 µM): 87%
- viability, T/C (second compound 0.0949 µM, first compound 0.01 µM): 98.8%
- viability, T/C [17]: 92.1%
- viability, T/C [18]: 74.3%
- viability, T/C [19]: 91.1%
- viability, T/C [20]: 68.5%
- viability, T/C (second compound 0.3 µM, first compound 0.00316 µM): 111%
- viability, T/C (second compound 0.3 µM, first compound 0.01 µM): 99.9%
- viability, T/C [21]: 92.8%
- viability, T/C [22]: 116%
- viability, T/C [23]: 90.9%
- viability, T/C [24]: 52.9%
